Results published in patent USRE47193E1, “Selectively substituted quinoline compounds” (EISAI R&D MANAGEMENT CO., LTD., priority 2013, dated 2019).

What follows are molecules tested on Human TLR7/8 (assay: Human PBMC cell-based assay, TLR7/8 stimulus (RNA-Ig), cytokine ELISA). Details: primary human PBMC assay, TLR7/8 potency; ligand not given; read-out: Human PBMCs IC50.
Protocol: Human PBMC Cell-Based Assay. Human peripheral blood mononuclear cells (PBMC) were isolated from freshly-drawn heparinized (10 USP units/ml, Hospira, Lakeforest, Ill.) healthy donor whole blood by density gradient (Histopaque® 1077, Sigma, Inc., St. Louis, Mo.). Briefly, 25 ml blood was diluted with 15 ml PBS (without Ca^2+, Mg^2+) in a 50 ml conical tube, and 12 ml Histopaque was underlaid using a spinal needle. Tubes were centrifuged for 45 minutes at 1200 rpm (350×g), and PBMC were collected from the buffy coat. Cells were then washed twice in PBS, and red blood cells were lysed by suspension in 5 ml ammonium chloride solution (1× Red Blood Cell Lysis Buffer, eBioscience) for 5 minutes at room temperature. After a final wash in PBS, PBMC were resuspended at a final concentration of 2×10^6/ml in RPMI-1640 media with L-glutamine (Invitrogen) and supplemented with 25 mM HEPES (Mediatech, Inc, Manassas Va.), 10% fetal bovine serum (HyClone, Logan, Utah), and Penicillin-Streptomycin-Glutamine (Mediatech) and plated at 100 ul/well (2×10^5 cells/well) in tissue culture treated 96-well plates (Falcon).
Antagonist compounds solubilized and serial diluted in 100% DMSO were added in triplicate to cells to yield a final concentration of 0.1% DMSO (v/v). Hydroxychloroquine (Acros Organics) solubilized and serial diluted in PBS was added in triplicate to cells. PBMC were incubated with antagonist compounds or HCQ for 30 minutes at 37° C., 5% CO2 before adding various TLR agonist reagents in 100 ul complete media per well as follows (final concentrations indicated): R848 (Resiquimod; GLSynthesis, Worcester, Mass.) at 1 uM for TLR7 and TLR8, LPS (Sigma) at 10 ng/ml for TLR4, and CpG-2216 (InvivoGen) at 5 ug/ml for TLR9. To prepare a TLR7/8 agonist that mimics RNA-containing auto-antibody immune complexes in lupus patients, a 26-mer RNA with a sequence derived from human U1 snRNA stem loop IV [(sequence: […]-[…] (SEQ ID NO: 2) with phosphorothioate backbone] was synthesized (Dharmacon, Inc., Lafayette, Colo.), which has been shown previously to be a potent TLR7 and TLR8 agonist. This RNA molecule was diluted to 2.5 μM in serum-free RPMI, and mouse anti-human single stranded DNA monoclonal antibody (MAB3034, Millipore, Inc., Billerica, Mass.), which also cross-reacts with RNA, was added at a 1:25 dilution or at 1 ug/ml. The resulting “RNA-Ig” stimulus was incubated at room temperature for 15-30 minutes before adding to cells. PBMC were incubated with the various TLR agonists for 20 hours at 37° C., 5% CO2. Cell culture supernatants were collected, and levels of various human cytokines were assessed as indicated by standard ELISA procedure according to the manufacturer's recommended protocol (BD Biosciences, Inc., San Diego, Calif.). In a subsequent assay (Table 6) the ability of ER-899742 to block stimulation of normal PBMC by various TLR7/8 ligands, but not DNA-mediated activation of TLR9, was examined. In this assay cells were plated at 1×10^5 cells/well in 100 ul in 96-well plates.

SMILES	IC50 [nM]
CC1CN(c2ccc(C#N)c3ncccc23)CC(C(=O)NC2CNCCC2F)O1.Cl (mixture of isomers) [ER-899477]	6
COCCNC(=O)C1CN(c2ccc(C#N)c3ncccc23)CC(C)O1 (centres unmarked) [ER-897385]	142
CC(O)CNC(=O)C1CN(c2ccc(C#N)c3ncccc23)CC(C)O1 (centres unmarked) [ER-897445]	104
CC(CO)NC(=O)C1CN(c2ccc(C#N)c3ncccc23)CC(C)O1 (centres unmarked) [ER-897446]	53
CC(CO)NC(=O)C1CN(c2ccc(C#N)c3ncccc23)CC(C)O1 (centres unmarked) [ER-897447]	100
CCC(CO)NC(=O)C1CN(c2ccc(C#N)c3ncccc23)CC(C)O1 (centres unmarked) [ER-897827]	39
CC1CN(c2ccc(C#N)c3ncccc23)CC(C(=O)NC(CO)C(C)C)O1 (centres unmarked) [ER-897828]	21
CCC(O)CNC(=O)C1CN(c2ccc(C#N)c3ncccc23)CC(C)O1 (centres unmarked) [ER-897922]	64
CC1CN(c2ccc(C#N)c3ncccc23)CC(C(=O)NC2CCCCC2O)O1 (centres unmarked) [ER-897938]	16
CC1CN(c2ccc(C#N)c3ncccc23)CC(C(=O)NC(CO)C(C)(C)C)O1 (centres unmarked) [ER-897940]	21
CC1CN(c2ccc(C#N)c3ncccc23)CC(C(=O)NCC2CN(C)CCO2)O1 (centres unmarked) [ER-897945]	2
CC1CN(c2ccc(C#N)c3ncccc23)CC(C(=O)NC2CNC2)O1 (centres unmarked) [ER-897964]	20
CC1CN(c2ccc(C#N)c3ncccc23)CC(C(=O)NC2CCNC2)O1 (centres unmarked) [ER-897965]	10
CC1CN(c2ccc(C#N)c3ncccc23)CC(C(=O)NC2CCCNC2)O1 (centres unmarked) [ER-897967]	13
CC1CN(c2ccc(C#N)c3ncccc23)CC(C(=O)NCC(F)(F)F)O1 (centres unmarked) [ER-898563]	122
CC1CN(c2ccc(C#N)c3ncccc23)CC(C(=O)NCCC(F)(F)F)O1 (centres unmarked) [ER-898565]	198
CC1CN(c2ccc(C#N)c3ncccc23)CC(C(=O)NCC2CN(C)CCO2)O1 (centres unmarked) [ER-898707]	2
CC1CN(c2ccc(C#N)c3ncccc23)CC(C(=O)NCCF)O1 (centres unmarked) [ER-898914]	168
CC1CN(c2ccc(C#N)c3ncccc23)CC(C(=O)Nc2ccnn2C)O1 (centres unmarked) [ER-898919]	55
C[C@@H]1CN(c2ccc(C#N)c3ncccc23)C[C@H](C(=O)NC2(C#N)CC2)O1 [ER-898921]	302
CC1CN(c2ccc(C#N)c3ncccc23)CC(C(=O)Nc2ncns2)O1 (centres unmarked) [ER-898922]	> 1000
Cc1nsc(NC(=O)C2CN(c3ccc(C#N)c4ncccc34)CC(C)O2)n1 (centres unmarked) [ER-898923]	631
CC1CN(c2ccc(C#N)c3ncccc23)CC(C(=O)NCC2(F)CCNCC2)O1 (centres unmarked) [ER-899019]	14

SMILES	IC50 [nM]
CC1CN(c2ccc(C#N)c3ncccc23)CC(C(=O)NCC2CNC2)O1 (centres unmarked) [ER-899020]	35
C[C@@H]1CN(c2ccc(C#N)c3ncccc23)C[C@H](C(=O)N2CC3(CCCNC3)C2)O1 [ER-899021]	5
CC1CN(c2ccc(C#N)c3ncccc23)CC(C(=O)NCC2COC2)O1 (centres unmarked) [ER-899121]	142
CNCCNC(=O)C1CN(c2ccc(C#N)c3ncccc23)CC(C)O1 (centres unmarked) [ER-899140]	11
C[C@@H]1CN(c2ccc(C#N)c3ncccc23)C[C@H](C(=O)NCCN(C)C)O1 [ER-899154]	14
CC1CN(c2ccc(C#N)c3ncccc23)CC(C(=O)NCCC(O)C(F)(F)F)O1 (centres unmarked) [ER-899160]	252
CC1CN(c2ccc(C#N)c3ncccc23)CC(C(=O)NCC2CNCCO2)O1 (centres unmarked) [ER-899278]	1
CC1CN(c2ccc(C#N)c3ncccc23)CC(C(=O)Nc2ccncc2)O1 (centres unmarked) [ER-899282]	34
CC1CN(c2ccc(C#N)c3ncccc23)CC(C(=O)NCc2ccn[nH]2)O1 (centres unmarked) [ER-899287]	120
CC1CN(c2ccc(C#N)c3ncccc23)CC(C(=O)NCC2CCCCN2C)O1 (centres unmarked) [ER-899293]	13
C[C@@H]1CN(c2ccc(C#N)c3ncccc23)C[C@H](C(=O)Nc2n[nH]cc2C#N)O1 [ER-899295]	32
C[C@@H]1CN(c2ccc(C#N)c3ncccc23)C[C@H](C(=O)N[C@H]2CN(C)C[C@H]2F)O1 [ER-899332]	14
CC1CNCC(CNC(=O)C2CN(c3ccc(C#N)c4ncccc34)CC(C)O2)O1 (centres unmarked) [ER-899366]	1
CC1CN(c2ccc(C#N)c3ncccc23)CC(C(=O)N2CC3CNCC3C2)O1 (centres unmarked) [ER-899367]	12
CC1CN(c2ccc(C#N)c3ncccc23)CC(C(=O)NCC2CCCN2)O1 (centres unmarked) [ER-899414]	25
CC1CN(c2ccc(C#N)c3ncccc23)CC(C(=O)NCC2CCCCN2)O1 (centres unmarked) [ER-899415]	13
C[C@@H]1CN(c2ccc(C#N)c3ncccc23)C[C@H](C(=O)NC2CC3CCC(C2)N3)O1 (some centres unmarked) [ER-899416]	431
CNC(=O)[C@H]1CN(c2ccc(C#N)c3ncccc23)C[C@@H](C)O1 [ER-899431]	347
CC1CN(c2ccc(C#N)c3ncccc23)CC(C(=O)N2CCC(N(C)C)CC2)O1 (centres unmarked) [ER-899459]	16
CC1CN(c2ccc(C#N)c3ncccc23)CC(C(=O)NC2CC3(CNC3)C2)O1 (centres unmarked) [ER-899479]	2
C[C@@H]1CN(c2ccc(C#N)c3ncccc23)C[C@H](C(=O)N2CCC(N)CC2)O1 [ER-899588]	7
CCN1CCC(NC(=O)[C@H]2CN(c3ccc(C#N)c4ncccc34)C[C@@H](C)O2)CC1 [ER-899626]	1

Each molecule was assayed against T1, mouse TLR7 (Mus musculus, UniProt P58681) (assay: Short-term in vivo (STIV) assay: oral dosing, R848 s.c., plasma IL-6). Details: 6 h; 100 mg/kg.
T1 sequence (P58681 27-1050): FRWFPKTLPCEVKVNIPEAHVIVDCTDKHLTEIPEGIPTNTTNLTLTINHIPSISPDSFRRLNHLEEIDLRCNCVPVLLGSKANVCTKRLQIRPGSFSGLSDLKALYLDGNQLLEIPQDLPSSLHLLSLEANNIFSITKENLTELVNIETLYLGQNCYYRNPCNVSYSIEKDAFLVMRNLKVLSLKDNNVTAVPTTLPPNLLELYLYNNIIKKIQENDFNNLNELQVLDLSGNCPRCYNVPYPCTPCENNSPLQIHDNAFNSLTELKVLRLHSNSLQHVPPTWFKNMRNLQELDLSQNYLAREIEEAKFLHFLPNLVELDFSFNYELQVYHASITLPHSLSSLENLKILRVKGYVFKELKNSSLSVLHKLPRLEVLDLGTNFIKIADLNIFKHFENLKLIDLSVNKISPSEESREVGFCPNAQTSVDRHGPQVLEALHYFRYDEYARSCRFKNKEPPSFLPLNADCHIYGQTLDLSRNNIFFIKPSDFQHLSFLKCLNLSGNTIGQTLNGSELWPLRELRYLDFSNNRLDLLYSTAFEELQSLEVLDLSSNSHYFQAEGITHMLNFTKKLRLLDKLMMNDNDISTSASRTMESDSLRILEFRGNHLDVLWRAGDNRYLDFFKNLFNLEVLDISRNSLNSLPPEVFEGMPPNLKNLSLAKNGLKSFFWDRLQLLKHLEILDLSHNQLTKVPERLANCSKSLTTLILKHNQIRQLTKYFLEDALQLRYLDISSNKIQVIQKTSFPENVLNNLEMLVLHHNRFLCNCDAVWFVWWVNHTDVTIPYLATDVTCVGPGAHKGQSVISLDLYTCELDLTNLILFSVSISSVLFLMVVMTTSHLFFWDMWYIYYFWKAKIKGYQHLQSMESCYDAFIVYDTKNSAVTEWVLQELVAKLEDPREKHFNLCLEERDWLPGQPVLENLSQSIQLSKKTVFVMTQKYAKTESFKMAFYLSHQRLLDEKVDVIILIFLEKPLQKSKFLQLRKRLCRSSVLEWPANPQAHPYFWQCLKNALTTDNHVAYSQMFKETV
Design: female BALB/c mice (Jackson Labs, Bar Harbor, Me.) were dosed by oral gavage; tissue Jackson Labs; host or cells: living female BALB/c mice; plasma IL-6 after s.c. R848
Protocol: Figure Legend: Female BALB/c mice were dosed by oral gavage with Vehicle alone (0.5% aqueous methyl-cellulose) or compound formulated in Vehicle at 33 mg/kg, 100 mg/kg or 300 mg/kg. […] (FIG. 1A).
Short-term in vivo (STIV) assay: To assess compound potency in vivo against mouse TLR7, a short-term in vivo (STIV) assay was utilized. Briefly, mice were orally dosed with compounds and at various time points afterwards were injected subcutaneously with agonist R848 to stimulate TLR7. The plasma IL-6 level following R848 stimulation was then measured by ELISA to assess compound potency and duration-of-action.
Short-term in vivo (STIV) assay. Six to eight week old female BALB/c mice (Jackson Labs, Bar Harbor, Me.) were dosed by oral gavage in 200 ul volume with antagonist compounds formulated in 0.5% aqueous methyl-cellulose (Sigma, St. Louis, Mo.). At various time points afterwards, mice were injected subcutaneously (s.c.) in 100 ul volume with 15 ug R848 (Resiquimod; GLSynthesis, Worcester, Mass.) to stimulate TLR7.

SMILES	% Suppression vs. Vehicle [%]
CC1CN(c2ccc(C#N)c3ncccc23)CC(C(=O)NC2CNCCC2F)O1.Cl (mixture of isomers) [ER-899477]	96

Same assay, conditions: 13 h; 100 mg/kg

SMILES	% Suppression vs. Vehicle [%]
CC1CN(c2ccc(C#N)c3ncccc23)CC(C(=O)NC2CNCCC2F)O1.Cl (mixture of isomers) [ER-899477]	68
